We go through 19 compounds from US11117900B2 (Vertex Pharmaceuticals Incorporated, priority 2012, dated 2021).

Structures are written as SMILES.

This assay concerns HCT116 colorectal cancer cells. Kind of assay: Cisplatin sensitization assay (96 h MTS cell viability).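 Further: compound concentration needed to lower the IC50 of Cisplatin alone by a set fold.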 It is filed as cell-based. The note with it: Cisplatin sensitization value. The gist of the method: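 HCT116 cells were dosed simultaneously with compound and cisplatin as a full matrix of 2-fold serial dilutions from 10 μM top final concentration. Incubation was 96 h at 37° C., 5% CO2, followed by 1 h with MTS reagent for the viability read-out. Sensitization values were binned into +++, ++ and + categories.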
Regarding `Nc1nn2cc(F)cnc2c1C(=O)Nc1cncc(F)c1N1CCC(C(=O)N2CCC(N3CCCCC3)C2)CC1` (stereo not shown) [I-G-64, 2-amino-6-fluoro-N-(5-fluoro-4-(4-(3-(piperidin-1-yl)pyrrolidine-1-carbonyl)piperidin-1-yl)pyridin-3-yl)pyrazolo[1,5-a]pyrimidine-3-carboxamide], the “Cisplatin Sensitization Assay” value is on record as “+++ (Compounds with a Cisplatin sensitization value of <0.02 μM are marked with “+++.”)”. For the compound `Nc1nn2cc(F)cnc2c1C(=O)Nc1cnccc1-n1ccnc1C(F)(F)F` [I-N-219, 2-amino-6-fluoro-N-(4-(2-(trifluoromethyl)-1H-imidazol-1-yl)pyridin-3-yl)pyrazolo[1,5-a]pyrimidine-3-carboxamide], the “Cisplatin Sensitization Assay” value is listed as “+++ (Compounds with a Cisplatin sensitization value of <0.02 μM are marked with “+++.”)”. In the case of `COc1cncc(NC(=O)c2c(N)nn3cc(F)cnc23)c1-c1cncn1C` [I-C-81, 2-amino-6-fluoro-N-(5-methoxy-4-(1-methyl-1H-imidazol-5-yl)pyridin-3-yl)pyrazolo[1,5-a]pyrimidine-3-carboxamide] it was “+++ (Compounds with a Cisplatin sensitization value of <0.02 μM are marked with “+++.”)”; in that of `CN1CCC[C@H]1C(=O)N1CCN(c2ccncc2NC(=O)c2c(N)nn3cc(F)cnc23)CC1` [I-N-198, (S)-2-amino-6-fluoro-N-(4-(4-(1-methylpyrrolidine-2-carbonyl)piperazin-1-yl)pyridin-3-yl)pyrazolo[1,5-a]pyrimidine-3-carboxamide], “++ (Compounds with a Cisplatin sensitization value >0.02 μM but <0.2 μM are marked with “++.”)”. Regarding `CN1CCOC(C(=O)N2CCN(c3c(F)cncc3NC(=O)c3c(N)nn4cc(F)cnc34)CC2)C1` (stereo not shown) [I-N-174, 2-amino-6-fluoro-N-(5-fluoro-4-(4-(4-methylmorpholine-2-carbonyl)piperazin-1-yl)pyridin-3-yl)pyrazolo[1,5-a]pyrimidine-3-carboxamide], the “Cisplatin Sensitization Assay” value is “+++ (Compounds with a Cisplatin sensitization value of <0.02 μM are marked with “+++.”)”. In the case of `N#CCc1cnc2c(C(=O)Nc3cnccc3N3CCOC(CN)C3)c(N)nn2c1` (stereo not shown) [I-N-90, 2-amino-N-(4-(2-(aminomethyl)morpholino)pyridin-3-yl)-6-(cyanomethyl)pyrazolo[1,5-a]pyrimidine-3-carboxamide], the “Cisplatin Sensitization Assay” value is “+ (Compounds with a Cisplatin sensitization value >0.2 μM but <5 μM are marked with “+.”)”. For `Nc1nn2cc(F)cnc2c1C(=O)Nc1cncc(F)c1N1CCC(C(=O)N2CCC(N3CCCC3)CC2)CC1` [I-G-59, 2-amino-6-fluoro-N-(5-fluoro-4-(4-(4-(pyrrolidin-1-yl)piperidine-1-carbonyl)piperidin-1-yl)pyridin-3-yl)pyrazolo[1,5-a]pyrimidine-3-carboxamide] the value was “+++ (Compounds with a Cisplatin sensitization value of <0.02 μM are marked with “+++.”)”; for `CN1CCN2CCN(c3ccncc3NC(=O)c3c(N)nn4cc(F)cnc34)CC2C1=O` (stereo not shown) [I-N-233, 2-amino-6-fluoro-N-(4-(8-methyl-9-oxohexahydro-1H-pyrazino[1,2-a]pyrazin-2(6H)-yl)pyridin-3-yl)pyrazolo[1,5-a]pyrimidine-3-carboxamide], “++ (Compounds with a Cisplatin sensitization value >0.02 μM but <0.2 μM are marked with “++.”)”; for `CC(C)N1CCN(c2ccncc2NC(=O)c2c(N)nn3cc(Cl)cnc23)CC1` [I-N-39, 2-amino-6-chloro-N-(4-(4-isopropylpiperazin-1-yl)pyridin-3-yl)pyrazolo[1,5-a]pyrimidine-3-carboxamide], “++ (Compounds with a Cisplatin sensitization value >0.02 μM but <0.2 μM are marked with “++.”)”. Regarding `CN1CCC(c2ccncc2NC(=O)c2c(N)nn3cc(F)cnc23)CC1` [I-C-1, 2-amino-6-fluoro-N-(4-(1-methylpiperidin-4-yl)pyridin-3-yl)pyrazolo[1,5-a]pyrimidine-3-carboxamide], the “Cisplatin Sensitization Assay” value is recorded as “++ (Compounds with a Cisplatin sensitization value >0.02 μM but <0.2 μM are marked with “++.”)”.

Regarding `Nc1nn2cc(F)cnc2c1C(=O)Nc1cncc(F)c1N1CCN(C(=O)C2CCOC2)CC1` (stereo not shown) [I-N-274, 2-amino-6-fluoro-N-(5-fluoro-4-(4-(tetrahydrofuran-3-carbonyl)piperazin-1-yl)pyridin-3-yl)pyrazolo[1,5-a]pyrimidine-3-carboxamide], the “Cisplatin Sensitization Assay” value is “+++ (Compounds with a Cisplatin sensitization value of <0.02 μM are marked with “+++.”)”. Take `N#CCc1cnc2c(C(=O)Nc3cnccc3O[C@@H]3CCNC3)c(N)nn2c1` [I-O-87, (R)-2-amino-6-(cyanomethyl)-N-(4-(pyrrolidin-3-yloxy)pyridin-3-yl)pyrazolo[1,5-a]pyrimidine-3-carboxamide]: the “Cisplatin Sensitization Assay” value was “++ (Compounds with a Cisplatin sensitization value >0.02 μM but <0.2 μM are marked with “++.”)”.

For `COc1ccncc1NC(=O)c1c(N)nn2cc(Cl)cnc12` [I-O-57, 2-amino-6-chloro-N-(4-methoxypyridin-3-yl)pyrazolo[1,5-a]pyrimidine-3-carboxamide], the “Cisplatin Sensitization Assay” value was “+++ (Compounds with a Cisplatin sensitization value of <0.02 μM are marked with “+++.”)”. With `Nc1nn2cc(F)cnc2c1C(=O)Nc1cncc(Cl)c1N1CCC(C(=O)N2CCNCC2)CC1` [I-G-48, 2-amino-N-(5-chloro-4-(4-(piperazine-1-carbonyl)piperidin-1-yl)pyridin-3-yl)-6-fluoropyrazolo[1,5-a]pyrimidine-3-carboxamide], the “Cisplatin Sensitization Assay” value was “+++ (Compounds with a Cisplatin sensitization value of <0.02 μM are marked with “+++.”)”.

In the case of `CN1CC2CN(c3c(Cl)cncc3NC(=O)c3c(N)nn4cc(F)cnc34)CC2C1` (stereo not shown) [I-N-286, 2-amino-N-(5-chloro-4-(5-methylhexahydropyrrolo[3,4-c]pyrrol-2(1H)-yl)pyridin-3-yl)-6-fluoropyrazolo[1,5-a]pyrimidine-3-carboxamide], the “Cisplatin Sensitization Assay” value is given as “++ (Compounds with a Cisplatin sensitization value >0.02 μM but <0.2 μM are marked with “++.”)”. As to `Nc1nn2cc(F)cnc2c1C(=O)Nc1cnccc1-c1cccnc1` [I-C-15, N-([3,4′-bipyridin]-3′-yl)-2-amino-6-fluoropyrazolo[1,5-a]pyrimidine-3-carboxamide], the “Cisplatin Sensitization Assay” value is listed as “++ (Compounds with a Cisplatin sensitization value >0.02 μM but <0.2 μM are marked with “++.”)”. Turning to `Nc1nn2cc(F)cnc2c1C(=O)Nc1cnccc1N1CCN(C2CCOC2)CC1` (racemic) [I-N-19, (R,S)-2-amino-6-fluoro-N-(4-(4-(tetrahydrofuran-3-yl)piperazin-1-yl)pyridin-3-yl)pyrazolo[1,5-a]pyrimidine-3-carboxamide], the “Cisplatin Sensitization Assay” value is listed as “+++ (Compounds with a Cisplatin sensitization value of <0.02 μM are marked with “+++.”)”.

In the case of `Nc1nn2cc(F)cnc2c1C(=O)Nc1cnccc1N1CCOCC1` [I-N-141, 2-amino-6-fluoro-N-(4-morpholinopyridin-3-yl)pyrazolo[1,5-a]pyrimidine-3-carboxamide], the “Cisplatin Sensitization Assay” value is given as “+++ (Compounds with a Cisplatin sensitization value of <0.02 μM are marked with “+++.”)”. Consider `Cc1ccnnc1-c1ccncc1NC(=O)c1c(N)nn2cc(F)cnc12` [I-C-33, 2-amino-6-fluoro-N-(4-(4-methylpyridazin-3-yl)pyridin-3-yl)pyrazolo[1,5-a]pyrimidine-3-carboxamide], for which the “Cisplatin Sensitization Assay” value is “+ (Compounds with a Cisplatin sensitization value >0.2 μM but <5 μM are marked with “+.”)”.
